Experimental data from patent US20140255402A1 (priority 2013, published 2014).

Tested on: NALM/6 cells
Parameters: species or system mice
Settings: mouse, in vivo

SMILES: Nc1ccn([C@@H]2O[C@H](CO)[C@@H](O)[C@@H]2O)c(=O)n1 [Ara-C, Cytarabine]
- Survival difference as compared to placebo: no significant survival difference
